Reference: article PMC7156458, “Synthetic biology based construction of biological activity-related library of fungal decalin-containing diterpenoid pyrones” (Nature Communications, 2020)

Molecular target: Aβ42 (Homo sapiens, UniProt P05067)
Experiment: Th-T (thioflavin-T) assay of Aβ42 aggregation
Assay type: biochemical
Settings: for Th-T assay plate reading, mean of three wells (Supplementary Fig. 47): source data, Ab alone and No Ab as controls

Chain of Aβ42 (P05067 672-713): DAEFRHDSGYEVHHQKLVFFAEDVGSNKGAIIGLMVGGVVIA

Th-T fluorescence, mean of three wells (Aβ42 aggregation time course, reading M118): 2.194
Th-T fluorescence, mean of three wells (Aβ42 aggregation time course, reading M119): 2.214
Th-T fluorescence, mean of three wells (Aβ42 aggregation time course, reading M120): 2.225
Th-T fluorescence, mean of three wells (Aβ42 aggregation time course, reading M121): 2.184
Th-T fluorescence, mean of three wells (Aβ42 aggregation time course, reading M122): 2.1853
Th-T fluorescence, mean of three wells (Aβ42 aggregation time course, reading M123): 2.186
Th-T fluorescence, mean of three wells (Aβ42 aggregation time course, reading M124): 2.207
Th-T fluorescence, mean of three wells (Aβ42 aggregation time course, reading M125): 2.241
Th-T fluorescence, mean of three wells (Aβ42 aggregation time course, reading M126): 2.218
Th-T fluorescence, mean of three wells (Aβ42 aggregation time course, reading M127): 2.187
Th-T fluorescence, mean of three wells (Aβ42 aggregation time course, reading M128): 2.217
Th-T fluorescence, mean of three wells (Aβ42 aggregation time course, reading M129): 2.196
Th-T fluorescence, mean of three wells (Aβ42 aggregation time course, reading M130): 2.222
Th-T fluorescence, mean of three wells (Aβ42 aggregation time course, reading M131): 2.189
Th-T fluorescence, mean of three wells (Aβ42 aggregation time course, reading M132): 2.211
Th-T fluorescence, mean of three wells (Aβ42 aggregation time course, reading M133): 2.1957
Th-T fluorescence, mean of three wells (Aβ42 aggregation time course, reading M134): 2.2077
Th-T fluorescence, mean of three wells (Aβ42 aggregation time course, reading M135): 2.191
Th-T fluorescence, mean of three wells (Aβ42 aggregation time course, reading M136): 2.198
Th-T fluorescence, mean of three wells (Supplementary Fig. 47, reading M138): 2.179
Th-T fluorescence, mean of three wells (Supplementary Fig. 47, reading M139): 2.196
Th-T fluorescence, mean of three wells (Supplementary Fig. 47, reading M140): 2.2093
Th-T fluorescence, mean of three wells (Supplementary Fig. 47, reading M141): 2.191
Th-T fluorescence, mean of three wells (Supplementary Fig. 47, reading M142): 2.182
Th-T fluorescence, mean of three wells (Supplementary Fig. 47, reading M143): 2.202
Th-T fluorescence, mean of three wells (Supplementary Fig. 47, reading M144): 2.22
Th-T fluorescence, mean of three wells (Supplementary Fig. 47, reading M145): 2.173
Th-T fluorescence, mean of three wells (Supplementary Fig. 47 source data, measurement M38 of time course): 2.163
Th-T fluorescence, mean of three wells (Supplementary Fig. 47 source data, measurement M39 of time course): 2.1439
Th-T fluorescence, mean of three wells (Supplementary Fig. 47 source data, measurement M40 of time course): 2.183
Th-T fluorescence, mean of three wells (Supplementary Fig. 47 source data, measurement M41 of time course): 2.185
Th-T fluorescence, mean of three wells (Supplementary Fig. 47 source data, measurement M42 of time course): 2.198
Th-T fluorescence, mean of three wells (Supplementary Fig. 47 source data, measurement M43 of time course): 2.197
Th-T fluorescence, mean of three wells (Supplementary Fig. 47 source data, measurement M44 of time course): 2.1886
Th-T fluorescence, mean of three wells (Supplementary Fig. 47 source data, measurement M45 of time course): 2.191
Th-T fluorescence, mean of three wells (Supplementary Fig. 47 source data, measurement M46 of time course): 2.181
Th-T fluorescence, mean of three wells (Supplementary Fig. 47 source data, measurement M47 of time course): 2.191
Th-T fluorescence, mean of three wells (Supplementary Fig. 47 source data, measurement M48 of time course): 2.202
Th-T fluorescence, mean of three wells (Supplementary Fig. 47 source data, measurement M49 of time course): 2.2088
Th-T fluorescence, mean of three wells (Supplementary Fig. 47 source data, measurement M50 of time course): 2.229
Th-T fluorescence, mean of three wells (Supplementary Fig. 47 source data, measurement M51 of time course): 2.215
Th-T fluorescence, mean of three wells (Supplementary Fig. 47 source data, measurement M52 of time course): 2.214
Th-T fluorescence, mean of three wells (Supplementary Fig. 47 source data, measurement M53 of time course): 2.236
Th-T fluorescence, mean of three wells (Supplementary Fig. 47 source data, measurement M54 of time course): 2.223
Th-T fluorescence, mean of three wells (Supplementary Fig. 47 source data, measurement M55 of time course): 2.205
Th-T fluorescence, mean of three wells (Supplementary Fig. 47 source data, measurement M56 of time course): 2.204
Th-T assay plate reading, mean of three wells (Supplementary Fig. 47) (measurement M2): 0.2095
Th-T assay plate reading, mean of three wells (Supplementary Fig. 47) (measurement M3): 0.2324
Th-T assay plate reading, mean of three wells (Supplementary Fig. 47) (measurement M4): 0.2683
Th-T assay plate reading, mean of three wells (Supplementary Fig. 47) (measurement M5): 0.2913
Th-T assay plate reading, mean of three wells (Supplementary Fig. 47) (measurement M6): 0.3294
Th-T assay plate reading, mean of three wells (Supplementary Fig. 47) (measurement M7): 0.3614
Th-T assay plate reading, mean of three wells (Supplementary Fig. 47) (measurement M8): 0.4027
Th-T assay plate reading, mean of three wells (Supplementary Fig. 47) (measurement M9): 0.444
Th-T assay plate reading, mean of three wells (Supplementary Fig. 47) (measurement M10): 0.4702
Th-T assay plate reading, mean of three wells (Supplementary Fig. 47) (measurement M11): 0.5005
Th-T assay plate reading, mean of three wells (Supplementary Fig. 47) (measurement M12): 0.5205
Th-T assay plate reading, mean of three wells (Supplementary Fig. 47) (measurement M13): 0.553
Th-T assay plate reading, mean of three wells (Supplementary Fig. 47) (measurement M14): 0.605
Th-T assay plate reading, mean of three wells (Supplementary Fig. 47) (measurement M15): 0.733
Th-T assay plate reading, mean of three wells (Supplementary Fig. 47) (measurement M16): 0.9658
Th-T fluorescence, mean of three wells (reading M18, Supplementary Fig. 47 source data): 1.528
Th-T fluorescence, mean of three wells (reading M19, Supplementary Fig. 47 source data): 1.697
Th-T fluorescence, mean of three wells (reading M20, Supplementary Fig. 47 source data): 1.804
Th-T fluorescence, mean of three wells (reading M21, Supplementary Fig. 47 source data): 1.844
Th-T fluorescence, mean of three wells (reading M22, Supplementary Fig. 47 source data): 1.86
Th-T fluorescence, mean of three wells (reading M23, Supplementary Fig. 47 source data): 1.891
Th-T fluorescence, mean of three wells (reading M24, Supplementary Fig. 47 source data): 1.925
Th-T fluorescence, mean of three wells (reading M25, Supplementary Fig. 47 source data): 1.959
Th-T fluorescence, mean of three wells (reading M26, Supplementary Fig. 47 source data): 2.003
Th-T fluorescence, mean of three wells (reading M27, Supplementary Fig. 47 source data): 2.003
Th-T fluorescence, mean of three wells (reading M28, Supplementary Fig. 47 source data): 2.0134
Th-T fluorescence, mean of three wells (reading M29, Supplementary Fig. 47 source data): 2.048
Th-T fluorescence, mean of three wells (reading M30, Supplementary Fig. 47 source data): 2.063
Th-T fluorescence, mean of three wells (reading M31, Supplementary Fig. 47 source data): 2.093
Th-T fluorescence, mean of three wells (reading M32, Supplementary Fig. 47 source data): 2.109
Th-T fluorescence, mean of three wells (reading M33, Supplementary Fig. 47 source data): 2.135
Th-T fluorescence, mean of three wells (reading M34, Supplementary Fig. 47 source data): 2.108
Th-T fluorescence, mean of three wells (reading M35, Supplementary Fig. 47 source data): 2.139
Th-T fluorescence, mean of three wells (reading M36, Supplementary Fig. 47 source data): 2.159
Th-T fluorescence, mean of three wells (time course, reading M58): 2.216
Th-T fluorescence, mean of three wells (time course, reading M59): 2.2236
Th-T fluorescence, mean of three wells (time course, reading M60): 2.219
Th-T fluorescence, mean of three wells (time course, reading M61): 2.226
Th-T fluorescence, mean of three wells (time course, reading M62): 2.227
Th-T fluorescence, mean of three wells (time course, reading M63): 2.25
Th-T fluorescence, mean of three wells (time course, reading M64): 2.223
Th-T fluorescence, mean of three wells (time course, reading M65): 2.24
Th-T fluorescence, mean of three wells (time course, reading M66): 2.247
Th-T fluorescence, mean of three wells (time course, reading M67): 2.214
Th-T fluorescence, mean of three wells (time course, reading M68): 2.201
Th-T fluorescence, mean of three wells (time course, reading M69): 2.2304
Th-T fluorescence, mean of three wells (time course, reading M70): 2.212
Th-T fluorescence, mean of three wells (time course, reading M71): 2.214
Th-T fluorescence, mean of three wells (time course, reading M72): 2.213
Th-T fluorescence, mean of three wells (time course, reading M73): 2.224
Th-T fluorescence, mean of three wells (time-course reading M98, Supplementary Fig. 47 source data): 2.211
Th-T fluorescence, mean of three wells (time-course reading M99, Supplementary Fig. 47 source data): 2.236
Th-T fluorescence, mean of three wells (time-course reading M100, Supplementary Fig. 47 source data): 2.235
Th-T fluorescence, mean of three wells (time-course reading M101, Supplementary Fig. 47 source data): 2.216
Th-T fluorescence, mean of three wells (time-course reading M102, Supplementary Fig. 47 source data): 2.236
Th-T fluorescence, mean of three wells (time-course reading M103, Supplementary Fig. 47 source data): 2.209
Th-T fluorescence, mean of three wells (time-course reading M104, Supplementary Fig. 47 source data): 2.206
Th-T fluorescence, mean of three wells (time-course reading M105, Supplementary Fig. 47 source data): 2.201
Th-T fluorescence, mean of three wells (time-course reading M106, Supplementary Fig. 47 source data): 2.237
Th-T fluorescence, mean of three wells (time-course reading M107, Supplementary Fig. 47 source data): 2.2129
Th-T fluorescence, mean of three wells (time-course reading M108, Supplementary Fig. 47 source data): 2.1995
Th-T fluorescence, mean of three wells (time-course reading M109, Supplementary Fig. 47 source data): 2.203
Th-T fluorescence, mean of three wells (time-course reading M110, Supplementary Fig. 47 source data): 2.217
Th-T fluorescence, mean of three wells (time-course reading M111, Supplementary Fig. 47 source data): 2.201
Th-T fluorescence, mean of three wells (time-course reading M112, Supplementary Fig. 47 source data): 2.214
Th-T fluorescence, mean of three wells (time-course reading M113, Supplementary Fig. 47 source data): 2.2232
Th-T fluorescence, mean of three wells (time-course reading M114, Supplementary Fig. 47 source data): 2.196
Th-T fluorescence, mean of three wells (time-course reading M115, Supplementary Fig. 47 source data): 2.1937
Th-T fluorescence, mean of three wells (time-course reading M116, Supplementary Fig. 47 source data): 2.237
Structure (SMILES): C=C1CCC2C(C)(CCC=C(C)C)C(=O)CCC2(C)C1Cc1c(O)c(C)c(C)oc1=O (stereo not shown) [Compound 8]
